From publication PMC12369603, “Functional characterization of antennae-enriched chemosensory protein 4 in emerald ash borer, Agrilus planipennis” (PeerJ, 2025)
Where “and” joins values, the source holds several entries; their conditions need not be identical. Equal values may be shown once. Read-outs that look alike come from different tables or passages of the source.

Target: recombinant AplaCSP4 (Agrilus planipennis chemosensory protein 4) (Agrilus planipennis, UniProt A0A1W4XLL0)
Assay: biochemical
Type: binding
Settings: for Kd: read-out: K D ±SE (dissociation constant); for binding to AplaCSP4 (in words): discussion of fluorescence competitive binding results; for Competitive binding capability(%) / activity at 2 µM / activity at 4 µM / activity at 6 µM / activity at 8 µM / activity at 10 µM / activity at 12 µM: three replicate columns, 100 at 0 μM
Experimental: Specifically, the binding affinities of AplaCSP4 for 43 volatile organic compounds were determined using F-380 fluorescence spectrophotometer (Tianjin, China) with a 10 nm slits and a 1 cm light path. These 43 substances are common green leaf volatiles, among which 16 volatiles originate from the ash tree. […]

[1] = AplaCSP4 and 1-NPN each 2 µM, 50 mM Tris–HCl pH 7.4, KD = IC50/(1+[1-NPN]/K1-NPN), mean of three experiments
[2] = AplaCSP4 and 1-NPN each 2 µM, ligands with minimal binding single experiment, read-out: K D ±SE, “–” = no binding (IC50 >16 μM, KD not calculated)
[3] = ligand concentration 2 μM, 2 µM
[4] = ligand concentration 4 μM, 4 µM
[5] = ligand concentration 6 μM, 6 µM
[6] = ligand concentration 8 μM, 8 µM
[7] = ligand concentration 10 μM, 10 µM
[8] = ligand concentration 12 μM, 12 µM
[9] = pH 7.4, read-out: Competitive binding capability(%), ligand concentration 2 μM
[10] = pH 7.4, read-out: Competitive binding capability(%), ligand concentration 4 μM
[11] = pH 7.4, read-out: Competitive binding capability(%), ligand concentration 6 μM
[12] = pH 7.4, read-out: Competitive binding capability(%), ligand concentration 8 μM
[13] = pH 7.4, read-out: Competitive binding capability(%), ligand concentration 10 μM
[14] = pH 7.4, read-out: Competitive binding capability(%), ligand concentration 12 μM
[15] = pH 7.4, ligand concentration 2 μM, read-out: Competitive binding capability(%)
[16] = pH 7.4, ligand concentration 4 μM, read-out: Competitive binding capability(%)
[17] = pH 7.4, ligand concentration 6 μM, read-out: Competitive binding capability(%)
[18] = pH 7.4, ligand concentration 8 μM, read-out: Competitive binding capability(%)
[19] = pH 7.4, ligand concentration 10 μM, read-out: Competitive binding capability(%)
[20] = pH 7.4, ligand concentration 12 μM, read-out: Competitive binding capability(%)

recombinant AplaCSP4 (Agrilus planipennis chemosensory protein 4), sequence (A0A1W4XLL0 entry or part of it): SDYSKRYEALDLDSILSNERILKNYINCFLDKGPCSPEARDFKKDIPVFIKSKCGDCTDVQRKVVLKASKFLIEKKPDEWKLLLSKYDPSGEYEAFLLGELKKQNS

## CC(C)=CCCC(C)=CC=O (mixture of isomers) [Citral]
  IC50: > 16 µM

## CC(=O)O[C@@H]1C[C@H]2CC[C@]1(C)C2(C)C (racemic) [Isobornyl acetate]
  IC50: > 16 µM

## C=C(C)C1CC=C(C)CC1 (single isomer, unassigned; (+)) [(+)-Limonene]
[1]
  Kd: 11.3 ± 0.69 µM
  binding to AplaCSP4 (in words): binding capabilities
Ligand concentration 2 μM
  Competitive binding capability(%): 97.2535% and 97.4709% and 95.8953%
Ligand concentration 4 μM
  Competitive binding capability(%): 90.8935% and 90.3604% and 88.2267%
Ligand concentration 6 μM
  Competitive binding capability(%): 83.0381% and 84.401% and 80.748%
Ligand concentration 8 μM
  Competitive binding capability(%): 77.7418% and 78.3215% and 71.3561%
Ligand concentration 10 μM
  Competitive binding capability(%): 70.6734% and 71.72% and 63.3296%
Ligand concentration 12 μM
  Competitive binding capability(%): 65.4243% and 64.4472% and 56.5332%

## CC12CCC(CC1)C(C)(C)O2 [1,8-Cineole]
  IC50: > 16 µM

## CCCCCCO [1-Hexanol]
  IC50: > 16 µM

## CCCCCCCCO [1-Octanol]
[2]
  IC50: > 16 µM

## C=CC(O)CCCCC (stereo not drawn) [1-Octen-3-ol]
  IC50: > 16 µM

## CCCCC(C)=O [2-Hexanone]
  IC50: > 16 µM

## CCc1ccc(C(C)=O)cc1 [4′-Ethylacetophenone]
  IC50: > 16 µM

## C=C1CCC2CC1C2(C)C (stereo not drawn) [(-)-β-Pinene]
[2]
  IC50: > 16 µM

## C=C(C)[C@@H]1CC=C(C)C(=O)C1 [(R)-(-)-Carvone]
  IC50: > 16 µM

## O=Cc1ccccc1 [Benzaldehyde]
  IC50: > 16 µM

## CCCCCCCCCC=O [Decanal]
[2]
  IC50: > 16 µM

## CCCCCCCCCC [Decane]
[3]
  Competitive binding capability(%): 60.8138% and 70.0208%
[4]
  Competitive binding capability(%): 45.6655% and 49.8433%
[5]
  Competitive binding capability(%): 42.3979% and 46.6766%
[6]
  Competitive binding capability(%): 41.2683% and 43.4013%
[7]
  Competitive binding capability(%): 39.2004% and 42.0377%
[8]
  Competitive binding capability(%): 38.5773% and 39.0548%
[9]
  activity at 2 µM: 57.1%
[10]
  activity at 4 µM: 45.8%
[11]
  activity at 6 µM: 42.4%
[12]
  activity at 8 µM: 40.4%
[13]
  activity at 10 µM: 39.9%
[14]
  activity at 12 µM: 38.2%
  Kd: 2.87 ± 0.44 µM

## CCCCCCCCCCCC [Dodecane]
  binding to AplaCSP4 (in words): binding capabilities
  Kd: 1.93 ± 0.09 µM
[3]
  Competitive binding capability(%): 62.371% and 59.0946%
[4]
  Competitive binding capability(%): 40.5144% and 36.3519%
[5]
  Competitive binding capability(%): 30.0968% and 29.949%
[6]
  Competitive binding capability(%): 26.7121% and 28.4784%
[7]
  Competitive binding capability(%): 26.2641% and 27.4122%
[8]
  Competitive binding capability(%): 25.5826% and 26.3545%
[9]
  activity at 2 µM: 63.1%
[10]
  activity at 4 µM: 37.5%
[11]
  activity at 6 µM: 29.7%
[12]
  activity at 8 µM: 27.4%
[13]
  activity at 10 µM: 26.7%
[14]
  activity at 12 µM: 25.8%

## C=CCc1ccc(O)c(OC)c1 [Eugenol]
  IC50: > 16 µM

## CCCCCC=O [Hexanal]
  IC50: > 16 µM

## CCCCCCOC(C)=O [Hexyl acetate]
[2]
  IC50: > 16 µM

## CCCCCCOC(=O)CCC [Hexyl butyrate]
[3]
  Competitive binding capability(%): 93.4207% and 91.053%
[4]
  Competitive binding capability(%): 84.76% and 83.3555%
[5]
  Competitive binding capability(%): 77.5021% and 75.6266%
[6]
  Competitive binding capability(%): 71.3681% and 69.2316%
[7]
  Competitive binding capability(%): 65.618% and 62.7841%
[8]
  Competitive binding capability(%): 61.0388% and 57.6483%
[15]
  activity at 2 µM: 93.1%
[16]
  activity at 4 µM: 85.4%
[17]
  activity at 6 µM: 78.8%
[18]
  activity at 8 µM: 72.2%
[19]
  activity at 10 µM: 65.8%
[20]
  activity at 12 µM: 61.7%
  Kd: 11.5 ± 0.42 µM

## C=CC(C)(O)CCC=C(C)C (stereo not drawn) [Linalool]
  IC50: > 16 µM

## COC(=O)c1ccccc1 [Methyl benzoate]
  IC50: > 16 µM

## COC(=O)c1ccccc1O [Methyl salicylate]
  IC50: > 16 µM

## C=CC(=C)CCC=C(C)C [Myrcene]
  binding to AplaCSP4 (in words): binding capabilities
  Kd: 9.9 ± 0.34 µM
[3]
  Competitive binding capability(%): 93.6207% and 95.326%
[4]
  Competitive binding capability(%): 85.4868% and 89.2675%
[5]
  Competitive binding capability(%): 76.2875% and 80.8277%
[6]
  Competitive binding capability(%): 67.6403% and 72.2022%
[7]
  Competitive binding capability(%): 61.2276% and 66.6056%
[8]
  Competitive binding capability(%): 55.297% and 60.7518%
[15]
  activity at 2 µM: 93.4%
[16]
  activity at 4 µM: 87%
[17]
  activity at 6 µM: 75.3%
[18]
  activity at 8 µM: 66.9%
[19]
  activity at 10 µM: 61.1%
[20]
  activity at 12 µM: 54.9%

## CCCCCCCCC=O [Nonanal]
[2]
  IC50: > 16 µM

## C=CC(C)=CCC=C(C)C [Ocimene]
[1]
  Kd: 10.4 ± 1.11 µM
  binding to AplaCSP4 (in words): binding capabilities
Ligand concentration 2 μM
  Competitive binding capability(%): 93.4067% and 90.0634% and 92.7212%
Ligand concentration 4 μM
  Competitive binding capability(%): 88.4911% and 81.8854% and 85.2152%
Ligand concentration 6 μM
  Competitive binding capability(%): 82.5386% and 75.7215% and 76.2043%
Ligand concentration 8 μM
  Competitive binding capability(%): 75.2984% and 68.1994% and 63.8599%
Ligand concentration 10 μM
  Competitive binding capability(%): 69.6898% and 60.3453% and 57.9099%
Ligand concentration 12 μM
  Competitive binding capability(%): 63.4481% and 55.0655% and 52.0519%

## CCCCCCCC=O [Octanal]
[2]
  IC50: > 16 µM

## N#CCc1ccccc1 [Phenylacetonitrile]
  IC50: > 16 µM

## CCCCCCCCCCCCCC [Tetradecane]
[2]
  IC50: > 16 µM

## CCCCC=O [Valeraldehyde]
[2]
  IC50: > 16 µM

## CC/C=C\CCO [cis-3-Hexen-1-ol]
  IC50: > 16 µM

## CC/C=C\CCOC(C)=O [cis-3-Hexenyl acetate]
[2]
  IC50: > 16 µM

## CC/C=C\CCOC(=O)c1ccccc1 [cis-3-Hexenyl benzoate]
[3]
  Competitive binding capability(%): 79.0652% and 72.7217%
[4]
  Competitive binding capability(%): 62.6633% and 59.3339%
[5]
  Competitive binding capability(%): 52.3441% and 49.0753%
[6]
  Competitive binding capability(%): 45.5407% and 42.369%
[7]
  Competitive binding capability(%): 38.572% and 36.9717%
[8]
  Competitive binding capability(%): 34.5851% and 32.8537%
[15]
  activity at 2 µM: 76.1%
[16]
  activity at 4 µM: 61.8%
[17]
  activity at 6 µM: 51.7%
[18]
  activity at 8 µM: 44.5%
[19]
  activity at 10 µM: 39.2%
[20]
  activity at 12 µM: 35%
  Kd: 4.29 ± 0.18 µM

## CC/C=C\CCOC(=O)C(C)C [cis-3-Hexenyl isobutyrate]
[2]
  IC50: > 16 µM

## CC/C=C\CCOC(=O)CC(C)C [cis-3-Hexenyl isovalerate]
[2]
  IC50: > 16 µM

## CCCCCCCC [n-Octane]
[3]
  Competitive binding capability(%): 86.2111% and 85.0437%
[4]
  Competitive binding capability(%): 71.3083% and 70.0543%
[5]
  Competitive binding capability(%): 57.8901% and 54.2819%
[6]
  Competitive binding capability(%): 46.7227% and 42.7241%
[7]
  Competitive binding capability(%): 38.967% and 35.7057%
[8]
  Competitive binding capability(%): 32.7961% and 31.347%
[9]
  activity at 2 µM: 86%
[10]
  activity at 4 µM: 67.9%
[11]
  activity at 6 µM: 56.4%
[12]
  activity at 8 µM: 45%
[13]
  activity at 10 µM: 38.2%
[14]
  activity at 12 µM: 31.4%
  Kd: 4.83 ± 0.11 µM
